Measurements from ChEMBL document CHEMBL1129699, “Synthesis of furo[2,3-c]pyran--D-thymidine” (Bioorg Med Chem Lett, 1996).

Legend:
CEM-SS [1] = test: Compound was tested in vitro for its cytotoxicity in CEM-SS cells; format: functional; settings: Homo sapiens
CEM-SS [2] = test: Compound was tested in vitro for its anti-HIV activity in CEM-SS cells; format: functional, cell-based; settings: Homo sapiens

SMILES	CC50 (CEM-SS [1]) [µM]	IC50 (CEM-SS [2]) [µM]
Cc1cn(C2CC3CC(C)OCC3(CO)O2)c(=O)[nH]c1=O (centres undefined)	> 100	> 100
Cc1cn(C2CC3CC(CI)OCC3(CO)O2)c(=O)[nH]c1=O (centres undefined)	> 100	> 100
